# Substitutions are numbered along the chain they refer to. pIC50: −log10 of the molar value.
# Tests used:
# GlyT2 V432A mutant = biological target: T1, GlyT2 V432A mutant (Homo sapiens, UniProt Q9Y345, V432A); assay: Glycine transport currents, two electrode voltage clamp, oocytes expressing GlyT2 V432A; format: cell-based; details: GlyT2 V432A; for pIC50: greater than maximum concentration applied (footnote a)
# T1 construct: expressed in transfected cells; host or cells: Xenopus laevis oocytes (cRNA injection)
# T1 sequence (Q9Y345 1-797 V432A): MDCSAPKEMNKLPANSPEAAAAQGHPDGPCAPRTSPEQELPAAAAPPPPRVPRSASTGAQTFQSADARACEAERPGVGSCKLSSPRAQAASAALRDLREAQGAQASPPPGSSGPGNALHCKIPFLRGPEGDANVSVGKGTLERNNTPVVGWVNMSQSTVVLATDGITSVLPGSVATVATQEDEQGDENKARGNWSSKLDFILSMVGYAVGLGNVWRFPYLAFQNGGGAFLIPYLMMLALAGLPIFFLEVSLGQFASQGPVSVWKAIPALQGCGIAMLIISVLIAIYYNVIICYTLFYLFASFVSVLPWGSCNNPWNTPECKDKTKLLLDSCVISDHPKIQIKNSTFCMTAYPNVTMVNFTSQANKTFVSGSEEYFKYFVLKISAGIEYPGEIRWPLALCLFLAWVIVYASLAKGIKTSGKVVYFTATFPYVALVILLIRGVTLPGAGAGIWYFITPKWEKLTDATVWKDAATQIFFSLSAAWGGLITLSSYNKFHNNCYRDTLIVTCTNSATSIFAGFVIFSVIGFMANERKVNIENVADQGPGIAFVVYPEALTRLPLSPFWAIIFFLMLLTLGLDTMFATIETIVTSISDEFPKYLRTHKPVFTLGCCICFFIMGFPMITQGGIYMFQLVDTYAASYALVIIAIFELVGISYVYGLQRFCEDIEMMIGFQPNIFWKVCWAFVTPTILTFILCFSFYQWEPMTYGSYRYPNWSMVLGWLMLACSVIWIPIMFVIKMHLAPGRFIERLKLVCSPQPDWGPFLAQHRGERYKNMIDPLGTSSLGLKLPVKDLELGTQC
# Protocol: (§1) Glycine was first applied to establish maximal transport current.
# (§2) Compounds were tested for inhibition of glycine transport on Xenopus laevis oocytes expressing mutant GlyT1 and GlyT2 transporters. n values are in brackets, with measurements taken from at least 2 batches of oocytes.
# GlyT2 F428A mutant = biological target: T2, GlyT2 F428A mutant (Homo sapiens, UniProt Q9Y345, F428A); assay: Glycine transport currents, two electrode voltage clamp, oocytes expressing GlyT2 F428A; format: cell-based; details: GlyT2 F428A; mean ± SEM
# T2 construct: expressed in transfected cells; host or cells: Xenopus laevis oocytes (cRNA injection)
# T2 sequence (Q9Y345 1-797 F428A): T1 sequence (Q9Y345 1-797 V432A) with F428A, A432V
# Protocol: as §1, §2
# GlyT1 WT = tested on: GlyT1 WT; design: method as in earlier work; details: previously published; cited from earlier work
# GlyT2 WT = biological target: T3, GlyT2 WT (Homo sapiens, UniProt Q9Y345); design: expressed in transfected cells; host or cells: Xenopus laevis oocytes (cRNA injection); details: WT GlyT2, previously published, cited from earlier work; for pIC50: mean (95% CI); for GlyT2 % max. inhibition: mean ± SEM
# T3 sequence (Q9Y345 1-797): T1 sequence (Q9Y345 1-797 V432A) with A432V
Structure (SMILES),% Max. inhibition (% inhibition at the highest concentration of inhibitor used) (GlyT2 V432A mutant; footnote b),pIC50 (GlyT2 V432A mutant),% Max. inhibition (GlyT2 F428A mutant) [%],pIC50 (GlyT1 WT),pIC50 (GlyT2 WT),GlyT2 % max. inhibition (GlyT2 WT) [%],% Max. inhibition (GlyT2 V432A mutant; mean ± SEM)
CCCCCC/C=C\CCCCCCCC(=O)NCC(=O)O [C16 ω7 Glycine],44.2 ± 6.3^b (p=0.0009) %,< 5.00,56.5,< 5.00,5.82,92.5 ± 1.6,
CCC=CCCCCCCCCCCCC(=O)NCC(=O)O [C16 ω3 Glycine],,< 5.00,,< 5.00,6.09,65.3 ± 1.9,1.0 ± 3.0 (p=0.0193) %
